Assay results from patent publication US20050250819A1 (priority 2004, published 2005).

Tested on: Type III-dependent secretion of ExoU by P. aeruginosa PA103
Experiment: Tertiary assay: Type III-dependent secretion of ExoU by P. aeruginosa PA103
Type: cell-based
Conditions: Pseudomonas aeruginosa, ExoU secreted into extracellular medium
Description: Tertiary assay: inhibition of Type III protein secretion of effectors from a Pseudomonas aeruginosa system. Type III protein secretion is used by P. aeruginosa to secrete several essential virulence determinants. One effector of the type III protein secretion system of P. aeruginosa PA103 is the virulence determinants ExoU.
The amount of Type III-dependent secretion of ExoU by P. aeruginosa PA103 can be determined in a cell-based assay by quantification of the 73.9 kDa ExoU protein secreted into the extracellular medium. Such quantitation can be achieved by growing strain PA103 in a deferrated medium in the presence of nitrilotriacetic acid (an inducer of Type III protein secretion in P. aeruginosa) and either in the presence or absence of putative inhibitors. After a prolonged growth period, the cells are sedimented and the supernatants concentrated by ammonium sulfate precipitation. The proteins in the resuspended pellets are separated by electrophoresis on SDS-polyacrylamide gels. After staining gels with Colloidal Blue™, the 73.9 kDa ExoU band is quantitated by scanning through an imager. The effects of inhibitors on the intensity of the ExoU band may be measured relative to that of untreated controls.

**Q.** How did the IC50 turn out when `O=C(N[C@@H](CSCc1ccccc1)C(=O)O)/C(=C\c1cccc(C(F)(F)F)c1)NC(=O)C1CCN(c2nccc(C(F)(F)F)n2)CC1` [Compound 78, (R)-3-Benzylsulfanyl-2-(3-(3-trifluoromethylphenyl)-2-{[1-(4-trifluoromethylpyrimidin-2-yl)piperidine-4-carbonyl]amino}acryloylamino)propionic acid] was run?
**A.** 67.3 µM

**Q.** With `O=C(NC(COCc1ccccc1)C(=O)O)/C(=C\c1ccc(-c2ccccc2)cc1)NC(=O)c1ccc(C(F)(F)F)cc1` (centres unmarked) [Compound 133] as the molecule, how does the IC50 read?
**A.** 100 µM

**Q.** `O=C(N[C@@H](CSCc1ccccc1)C(=O)O)/C(=C\c1ccc(Cl)c(Cl)c1)NC(=O)C1CCN(c2nccc(C(F)(F)F)n2)CC1` [Compound 74, (R)-3-Benzylsulfanyl-2-(3-(3,4-dichlorophenyl)-2-{[1-(4-trifluoromethylpyrimidin-2-yl)piperidine-4-carbonyl]amino}acryloylamino)propionic acid] was tested. Which IC50 did it give?
**A.** 33.8 µM

**Q.** For `O=C(N[C@H](COCc1ccccc1)C(=O)O)/C(=C\c1ccc(I)cc1)NC(=O)C1CCN(c2nccc(C(F)(F)F)n2)CC1` [Compound 75, (R)-3-Benzyloxy-2-(3-(4-iodophenyl)-2-{[1-(4-trifluoromethylpyrimidin-2-yl)-piperidine-4-carbonyl]amino}acryloylamino)propionic acid], which IC50 is on record?
**A.** 66.3 µM

**Q.** With `O=C(N[C@H](COCc1ccccc1)C(=O)O)/C(=C\c1ccc(Cl)c(Cl)c1)NC(=O)c1ccc(OC(F)(F)F)cc1` [Compound 30, (R)-3-Benzyloxy-2-[3-(3,4-dichlorophenyl)-2-(4-trifluoromethoxybenzoylamino)-acryloylamino]propionic acid] as the molecule, how does the IC50 read?
**A.** 54 µM

**Q.** `O=C(N[C@@H](CSCc1ccccc1)C(=O)O)/C(=C\c1cccc(OCc2ccccc2)c1)NC(=O)c1ccc(C(F)(F)F)cc1` [Compound 18, (R)-2-[3-(3-Benzyloxyphenyl)-2-(4-trifluoromethylbenzoylamino)acryloylamino]-3-benzylsulfanylpropionic acid] was tested. Which IC50 did it give?
**A.** 57 µM

**Q.** With `CC(C)c1ccc(/C=C(/NC(=O)c2ccc(C(F)(F)F)cc2)C(=O)N[C@@H](CSCc2ccccc2)C(=O)O)cc1` [Compound 34, (R)-3-Benzylsulfanyl-2-[3-(4-isopropylphenyl)-2-(4-trifluoromethyl-benzoylamino)acryloylamino]propionic acid] as the molecule, how does the IC50 read?
**A.** 50 µM

**Q.** With `O=C(N[C@@H](COCc1ccccc1)C(=O)O)/C(=C\c1ccc(Cl)c(Cl)c1)NC(=O)c1ccc(Oc2ccccc2)cc1` [Compound 49, (S)-3-Benzyloxy-2-[3-(3,4-dichlorophenyl)-2-(4-phenoxybenzoylamino)-acryloylamino]propionic acid] as the molecule, how does the IC50 read?
**A.** 75.7 µM

**Q.** For `CN(C(=O)/C(=C\c1cccc(C(F)(F)F)c1)NC(=O)c1ccc(-c2ccccc2)cc1)C(COCc1ccccc1)C(=O)O` (centres unmarked) [Compound 53, 3-Benzyloxy-2-{[2-[(biphenyl-4-carbonyl)amino]-3-(3-trifluoromethylphenyl)-acryloyl]methylamino}propionic acid], which IC50 is on record?
**A.** 46 µM

**Q.** Which IC50 does the source give for `O=C(N[C@@H](CSCc1ccccc1)C(=O)O)/C(=C\c1ccc(Cl)cc1Cl)NC(=O)c1ccc(-c2ccccc2)cc1` [Compound 102] here?
**A.** 40 µM

**Q.** Which IC50 does the source give for `O=C(N[C@@H](CSCc1ccccc1)C(=O)O)/C(=C\c1ccc2ccccc2c1)NC(=O)c1ccc(C(F)(F)F)cc1` [Compound 35, (R)-3-Benzylsulfanyl-2-[3-naphthalen-2-yl-2-(4-trifluoromethylbenzoylamino)-acryloylamino]propionic acid] here?
**A.** < 12.5 µM

**Q.** `O=C(NC(COCc1ccccc1)C(=O)O)/C(=C\c1ccc(Cl)cc1Cl)NC(=O)c1ccc(-c2ccccc2)cc1` (centres unmarked) [Compound 103] was tested. Which IC50 did it give?
**A.** 18 µM

**Q.** How did the IC50 turn out when `O=C(N[C@@H](CSCc1ccccc1)C(=O)O)/C(=C\c1ccc(I)cc1)NC(=O)C1CCN(c2nccc(C(F)(F)F)n2)CC1` [Compound 76, (R)-3-Benzylsulfanyl-2-(3-(4-iodophenyl)-2-{[1-(4-trifluoromethylpyrimidin-2-yl)-piperidine-4-carbonyl]amino}acryloylamino)propionic acid] was run?
**A.** 56.7 µM

**Q.** With `O=C(N[C@@H](COCc1ccccc1)C(=O)O)/C(=C\c1ccc(-c2ccccc2)cc1)NC(=O)c1ccc(C(F)(F)F)cc1` [Compound 23, (S)-3-Benzyloxy-2-[3-biphenyl-4-yl-2-(4-trifluoromethylbenzoylamino)-acryloylamino]propionic acid] as the molecule, how does the IC50 read?
**A.** 29 µM

**Q.** `O=C(N[C@@H](CSCc1ccccc1)C(=O)O)/C(=C\c1ccc(Oc2ccccc2)cc1)NC(=O)c1ccc(Br)cc1` [Compound 20, (R)-3-Benzylsulfanyl-2-[2-(4-bromobenzoylamino)-3-(4-phenoxyphenyl)-acryloylamino]propionic acid] was tested. Which IC50 did it give?
**A.** 37 µM

**Q.** For `O=C(N[C@H](COCc1ccccc1)C(=O)O)/C(=C\c1cccc(C(F)(F)F)c1)NC(=O)C1CCN(c2nccc(C(F)(F)F)n2)CC1` [Compound 77, (R)-3-Benzyloxy-2-(3-(3-trifluoromethylphenyl)-2-{[1-(4-trifluoromethylpyrimidin-2-yl)-piperidine-4-carbonyl]amino}acryloylamino)propionic acid], which IC50 is on record?
**A.** 60 µM

**Q.** With `O=C(N[C@@H](Cc1ccc(Cl)cc1)C(=O)O)/C(=C\c1cccc(C(F)(F)F)c1)NC(=O)c1ccc(-c2ccccc2)cc1` [Compound 38, (S)-2-[2-[(Biphenyl-4-carbonyl)amino]-3-(3-trifluoromethylphenyl)acryloylamino]-3-(4-chlorophenyl)propionic acid] as the molecule, how does the IC50 read?
**A.** 17.3 µM

**Q.** With `O=C(N[C@@H](CSCc1ccccc1)C(=O)O)/C(=C\c1ccc(OC(F)(F)F)cc1)NC(=O)C1CCN(c2nccc(C(F)(F)F)n2)CC1` [Compound 84, (R)-3-Benzylsulfanyl-2-(3-(4-trifluoromethoxyphenyl)-2-{[1-(4-trifluoromethyl-pyrimidin-2-yl)piperidine-4-carbonyl]amino}acryloylamino)propionic acid] as the molecule, how does the IC50 read?
**A.** 57.8 µM

**Q.** Which IC50 does the source give for `O=C(N[C@@H](CSCc1ccccc1)C(=O)O)/C(=C\c1cccc(Br)c1)NC(=O)c1ccc(Oc2ccccc2)cc1` [Compound 48, (R)-3-Benzylsulfanyl-2-[3-(3-bromophenyl)-2-(4-phenoxybenzoylamino)-acryloylamino]propionic acid] here?
**A.** 24.8 µM

**Q.** Which IC50 does the source give for `O=C(N[C@@H](CSCc1ccccc1)C(=O)O)/C(=C\c1ccc(Oc2ccc(Cl)cc2)cc1)NC(=O)c1ccc(C(F)(F)F)cc1` [Compound 58, (R)-3-Benzylsulfanyl-2-[3-[4-(4-chlorophenoxy)phenyl]-2-(4-trifluoromethyl-benzoylamino)acryloylamino]propionic acid] here?
**A.** 48.5 µM

**Q.** How did the IC50 turn out when `O=C(N[C@@H](CSCc1ccccc1)C(=O)O)/C(=C\c1cccc(Oc2ccc(Cl)cc2)c1)NC(=O)c1ccc(C(F)(F)F)cc1` [Compound 40, (R)-3-Benzylsulfanyl-2-[3-[3-(4-chlorophenoxy)phenyl]-2-(4-trifluoromethyl-benzoylamino)acryloylamino]propionic acid] was run?
**A.** 13.1 µM

**Q.** How did the IC50 turn out when `O=C(N[C@@H](CSCc1ccccc1)C(=O)O)/C(=C\c1ccc(Oc2ccc(F)cc2)cc1)NC(=O)c1ccc(C(F)(F)F)cc1` [Compound 57, (R)-3-Benzylsulfanyl-2-[3-[4-(4-fluorophenoxy)phenyl]-2-(4-trifluoromethyl-benzoylamino)acryloylamino]propionic acid] was run?
**A.** 35 µM

**Q.** For `O=C(N[C@H](COCc1ccccc1)C(=O)O)/C(=C\c1ccc(Cl)c(Cl)c1)NC(=O)c1ccc(-c2ccccc2)cc1` [Compound 56, (R)-3-Benzyloxy-2-[2-[(biphenyl-4-carbonyl)amino]-3-(3,4-dichlorophenyl)-acryloylamino]propionic acid], which IC50 is on record?
**A.** 20.2 µM

**Q.** For `O=C(NC(Cc1ccc(F)cc1)C(=O)O)/C(=C\c1ccc(-c2ccccc2)cc1)NC(=O)c1ccc(C(F)(F)F)cc1` (centres unmarked) [Compound 54, 2-[3-Biphenyl-4-yl-2-(4-trifluoromethylbenzoylamino)acryloylamino]-3-(4-fluoro-phenyl)propionic acid], which IC50 is on record?
**A.** 19 µM

**Q.** For `O=C(N[C@@H](COCc1ccccc1)C(=O)O)/C(=C\c1ccc(Cl)c(Cl)c1)NC(=O)c1ccc(-c2ccccc2)cc1` [Compound 26, (S)-3-Benzyloxy-2-[2-[(biphenyl-4-carbonyl)amino]-3-(3,4-dichlorophenyl)-acryloylamino]propionic acid], which IC50 is on record?
**A.** 24 µM

**Q.** For `O=C(N[C@@H](CSCc1ccccc1)C(=O)O)/C(=C\c1ccc(Cl)c(Cl)c1)NC(=O)c1ccc(C(F)(F)F)cc1` [Compound 140], which IC50 is on record?
**A.** 48 µM

**Q.** With `O=C(NC(CCSCc1ccccc1)C(=O)O)/C(=C\c1ccc(-c2ccccc2)cc1)NC(=O)c1ccc(C(F)(F)F)cc1` (centres unmarked) [Compound 122] as the molecule, how does the IC50 read?
**A.** 25 µM

**Q.** `O=C(NC(CCSCc1ccccc1)C(=O)O)/C(=C\c1cccc(C(F)(F)F)c1)NC(=O)c1ccc(-c2ccccc2)cc1` (centres unmarked) [Compound 98] was tested. Which IC50 did it give?
**A.** 13 µM

**Q.** For `O=C(N[C@@H](CSCc1ccccc1)C(=O)O)/C(=C\c1ccc(OC(F)(F)F)cc1)NC(=O)c1ccc(I)cc1` [Compound 22, (R)-3-Benzylsulfanyl-2-[2-(4-iodobenzoylamino)-3-(4-trifluoromethoxyphenyl)-acryloylamino]propionic acid], which IC50 is on record?
**A.** 47 µM
